{"source": "ChEMBL document CHEMBL1201862", "about": "“PubChem BioAssay data set” (2004)", "key": {"[1]": {"molecular_target": "T1, Delta-type opioid receptor (Homo sapiens, UniProt P41143)", "T1 sequence (P41143 whole entry)": "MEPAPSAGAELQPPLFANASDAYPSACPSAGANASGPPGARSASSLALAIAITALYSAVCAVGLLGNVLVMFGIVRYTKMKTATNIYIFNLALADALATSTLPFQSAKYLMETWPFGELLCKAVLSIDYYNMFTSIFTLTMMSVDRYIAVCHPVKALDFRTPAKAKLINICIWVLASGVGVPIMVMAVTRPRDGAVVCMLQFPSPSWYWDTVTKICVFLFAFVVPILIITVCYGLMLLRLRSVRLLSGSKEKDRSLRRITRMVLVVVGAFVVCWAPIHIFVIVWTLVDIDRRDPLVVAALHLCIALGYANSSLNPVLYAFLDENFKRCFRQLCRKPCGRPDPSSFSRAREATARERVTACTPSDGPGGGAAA", "test": "HTS Image-Based Screen for Antagonists of the DOR Receptor. [Related pubchem assays (depositor defined):AID1777, AID1785, AID1786, AID2133]", "format": "functional"}, "Mu-type opioid receptor": {"molecular_target": "Mu-type opioid receptor (Homo sapiens, UniProt P35372)", "sequence (P35372 whole entry)": "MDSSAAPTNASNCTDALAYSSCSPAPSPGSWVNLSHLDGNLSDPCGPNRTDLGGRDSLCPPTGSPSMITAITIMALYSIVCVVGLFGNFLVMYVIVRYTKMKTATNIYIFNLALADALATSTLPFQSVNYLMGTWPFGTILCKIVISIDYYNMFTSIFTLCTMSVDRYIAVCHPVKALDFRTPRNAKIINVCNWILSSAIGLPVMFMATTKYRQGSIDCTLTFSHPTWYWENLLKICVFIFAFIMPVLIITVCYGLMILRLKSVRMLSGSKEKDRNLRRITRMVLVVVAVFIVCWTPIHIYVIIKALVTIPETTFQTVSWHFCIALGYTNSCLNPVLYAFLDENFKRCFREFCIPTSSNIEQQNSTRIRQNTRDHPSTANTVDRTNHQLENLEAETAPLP", "test": "HTS Image-Based Screen for Agonists of the MOR Receptor. [Related pubchem assays (depositor defined):AID1777, AID1785, AID1786, AID2133]", "format": "functional"}, "[2]": {"molecular_target": "T1, Delta-type opioid receptor", "test": "HTS Image-Based Screen for Agonists of the DOR Receptor. [Related pubchem assays (depositor defined):AID1777, AID1786, AID2133]", "format": "functional"}, "[3]": {"molecular_target": "T2, Kappa-type opioid receptor (Homo sapiens, UniProt P41145)", "T2 sequence (P41145 whole entry)": "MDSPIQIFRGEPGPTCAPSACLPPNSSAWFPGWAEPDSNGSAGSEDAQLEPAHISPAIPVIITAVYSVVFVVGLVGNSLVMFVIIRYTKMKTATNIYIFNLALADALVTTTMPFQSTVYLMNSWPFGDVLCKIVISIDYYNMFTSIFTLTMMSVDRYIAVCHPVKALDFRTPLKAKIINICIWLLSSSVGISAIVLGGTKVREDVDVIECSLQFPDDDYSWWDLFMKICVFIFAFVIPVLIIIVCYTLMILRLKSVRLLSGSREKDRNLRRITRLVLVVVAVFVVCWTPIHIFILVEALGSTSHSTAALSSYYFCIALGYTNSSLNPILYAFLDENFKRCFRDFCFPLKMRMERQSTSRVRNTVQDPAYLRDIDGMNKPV", "format": "functional"}, "Beta-galactosidase": {"molecular_target": "Beta-galactosidase (Escherichia coli, UniProt Q8VNN2)", "sequence (Q8VNN2 whole entry)": "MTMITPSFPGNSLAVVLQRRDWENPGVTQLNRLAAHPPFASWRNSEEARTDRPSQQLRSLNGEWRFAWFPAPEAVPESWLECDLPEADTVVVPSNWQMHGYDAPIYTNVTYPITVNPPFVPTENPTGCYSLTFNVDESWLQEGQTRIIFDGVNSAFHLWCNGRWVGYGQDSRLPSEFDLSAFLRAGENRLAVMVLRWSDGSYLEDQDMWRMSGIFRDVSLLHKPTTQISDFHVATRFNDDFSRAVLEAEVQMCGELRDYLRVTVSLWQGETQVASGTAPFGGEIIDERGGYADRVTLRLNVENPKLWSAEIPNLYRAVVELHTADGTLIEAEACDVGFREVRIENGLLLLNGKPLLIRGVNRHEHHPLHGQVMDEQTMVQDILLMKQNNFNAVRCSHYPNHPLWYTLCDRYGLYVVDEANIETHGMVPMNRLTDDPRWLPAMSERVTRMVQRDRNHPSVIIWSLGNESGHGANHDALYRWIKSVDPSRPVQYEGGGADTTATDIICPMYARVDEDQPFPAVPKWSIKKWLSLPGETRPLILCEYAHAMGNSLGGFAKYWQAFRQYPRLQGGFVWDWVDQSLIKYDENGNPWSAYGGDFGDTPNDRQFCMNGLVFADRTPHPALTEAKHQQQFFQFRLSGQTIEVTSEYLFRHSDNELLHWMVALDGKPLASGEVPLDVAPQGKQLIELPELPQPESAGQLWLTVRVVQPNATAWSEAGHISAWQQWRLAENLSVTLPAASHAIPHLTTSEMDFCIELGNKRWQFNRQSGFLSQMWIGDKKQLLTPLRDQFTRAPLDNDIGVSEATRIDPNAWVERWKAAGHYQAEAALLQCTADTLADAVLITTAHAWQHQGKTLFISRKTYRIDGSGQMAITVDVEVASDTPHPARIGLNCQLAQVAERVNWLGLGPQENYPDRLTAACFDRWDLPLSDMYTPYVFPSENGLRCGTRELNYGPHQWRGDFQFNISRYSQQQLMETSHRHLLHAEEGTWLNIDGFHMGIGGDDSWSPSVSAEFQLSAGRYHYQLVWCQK", "format": "functional"}, "[4]": {"molecular_target": "T2, Kappa-type opioid receptor", "format": "functional", "remark": "listed apart in the source"}, "CHO": {"test_system": "CHO", "test": "CHO cell viability loss, potency – luminescence, cytotoxicity control for TLR9-MyD88 binding inhibitor project, dose response (AID 588339);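 note: CHO cells stably coexpressing TLR9 and MyD88 fusions from primary screen; compound exposure lasted 48 hours before viability readout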", "format": "functional, cell-based, hamster", "settings": "Cricetulus griseus"}, "[5]": {"molecular_target": "T3, Replicative DNA helicase DnaB (Mycobacterium tuberculosis, UniProt P9WMR3)", "T3 sequence (P9WMR3 whole entry)": "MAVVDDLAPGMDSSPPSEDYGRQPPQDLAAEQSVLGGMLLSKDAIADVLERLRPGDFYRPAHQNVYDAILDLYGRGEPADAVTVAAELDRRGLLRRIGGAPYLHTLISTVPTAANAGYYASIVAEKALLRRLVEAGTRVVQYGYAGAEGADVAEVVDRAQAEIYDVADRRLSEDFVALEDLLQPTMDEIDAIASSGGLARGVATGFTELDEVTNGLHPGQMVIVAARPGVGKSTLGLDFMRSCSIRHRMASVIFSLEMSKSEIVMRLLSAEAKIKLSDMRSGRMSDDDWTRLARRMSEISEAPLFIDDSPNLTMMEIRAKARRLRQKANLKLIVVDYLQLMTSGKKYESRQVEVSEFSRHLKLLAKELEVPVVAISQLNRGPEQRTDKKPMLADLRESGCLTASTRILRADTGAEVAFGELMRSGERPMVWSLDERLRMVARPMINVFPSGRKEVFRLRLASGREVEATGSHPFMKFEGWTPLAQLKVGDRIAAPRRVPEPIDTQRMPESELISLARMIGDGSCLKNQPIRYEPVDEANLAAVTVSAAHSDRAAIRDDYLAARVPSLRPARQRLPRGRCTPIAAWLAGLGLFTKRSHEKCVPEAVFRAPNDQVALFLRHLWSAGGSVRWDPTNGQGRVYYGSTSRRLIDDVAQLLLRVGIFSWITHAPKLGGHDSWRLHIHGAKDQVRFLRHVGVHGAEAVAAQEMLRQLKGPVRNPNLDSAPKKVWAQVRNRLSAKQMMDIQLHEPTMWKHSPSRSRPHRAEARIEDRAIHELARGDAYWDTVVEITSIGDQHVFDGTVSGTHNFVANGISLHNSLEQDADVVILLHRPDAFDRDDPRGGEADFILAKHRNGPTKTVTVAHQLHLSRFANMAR", "test": "DnaB intein splicing inhibitors, dose response, biochemical, cell-free fluorescence (AID 449749)", "format": "functional"}, "[6]": {"molecular_target": "Heat shock protein HSP 90-alpha (Homo sapiens, UniProt P07900)", "format": "functional, organism-based"}, "Protein RecA": {"molecular_target": "T4, Protein RecA (Mycobacterium tuberculosis, UniProt P9WHJ3)", "T4 sequence (P9WHJ3 whole entry)": "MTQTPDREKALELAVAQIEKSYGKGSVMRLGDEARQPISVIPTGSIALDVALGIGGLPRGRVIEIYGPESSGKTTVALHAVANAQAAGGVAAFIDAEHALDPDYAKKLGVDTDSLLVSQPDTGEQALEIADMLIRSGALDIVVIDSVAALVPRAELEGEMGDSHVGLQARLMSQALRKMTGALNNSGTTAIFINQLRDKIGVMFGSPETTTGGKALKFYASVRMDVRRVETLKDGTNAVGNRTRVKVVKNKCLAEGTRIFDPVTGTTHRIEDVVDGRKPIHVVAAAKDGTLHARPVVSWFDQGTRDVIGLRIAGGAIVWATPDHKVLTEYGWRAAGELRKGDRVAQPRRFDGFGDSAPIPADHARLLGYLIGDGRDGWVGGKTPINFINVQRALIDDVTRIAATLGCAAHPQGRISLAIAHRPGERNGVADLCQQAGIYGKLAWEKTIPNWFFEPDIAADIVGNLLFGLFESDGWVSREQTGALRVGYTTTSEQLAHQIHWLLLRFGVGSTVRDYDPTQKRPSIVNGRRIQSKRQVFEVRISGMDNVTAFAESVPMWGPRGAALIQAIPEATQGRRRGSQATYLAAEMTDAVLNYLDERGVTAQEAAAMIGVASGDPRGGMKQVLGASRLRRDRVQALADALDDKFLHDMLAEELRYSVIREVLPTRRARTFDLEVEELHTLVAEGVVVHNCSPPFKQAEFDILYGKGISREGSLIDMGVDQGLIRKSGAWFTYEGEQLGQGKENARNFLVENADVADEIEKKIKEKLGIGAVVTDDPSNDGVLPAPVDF", "test": "Fluorescence Cell-Free Homogeneous Dose Retest to Identify Inhibitors of RecA-Intein Splicing Activity. [Related pubchem assays (depositor defined):AID2097, AID2223, AID489010, AID492950]", "format": "functional"}, "Beta Lactamase": {"molecular_target": "Beta Lactamase (Pseudomonas aeruginosa, UniProt Q932Y6)", "sequence (Q932Y6 whole entry)": "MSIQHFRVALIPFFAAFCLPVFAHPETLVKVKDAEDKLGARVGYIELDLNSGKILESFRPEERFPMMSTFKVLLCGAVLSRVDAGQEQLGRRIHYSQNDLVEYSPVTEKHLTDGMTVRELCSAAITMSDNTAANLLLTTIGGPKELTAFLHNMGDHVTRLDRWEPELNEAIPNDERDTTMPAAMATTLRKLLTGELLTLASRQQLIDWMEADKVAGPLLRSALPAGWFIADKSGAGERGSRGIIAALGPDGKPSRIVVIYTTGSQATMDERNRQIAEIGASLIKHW", "test": "BLA reporter interference, concentration series – BLA reporter cells, FRET fluorescence, artefact control for TLR9-MyD88 binding inhibitor project, dose response (AID 588341)", "format": "cell-based"}, "[7]": {"test": "reduction of Shn3 3'UTR-driven luciferase in osteoblasts – cell-based, Clone20 osteoblasts, firefly luciferase, cherry-picked, dose response (AID 624132)", "format": "functional"}, "[8]": {"test": "loss of viability in HepG2 cells – cell-based, CellTiter-Glo, cherry-picked, cytotoxicity control for Shn3 inhibitor project, dose response (AID 624134)", "format": "functional"}, "[9]": {"test": "non-specific 3'UTR reporter inhibition in Clone20-Shn3RL – cell-based, Renilla luciferase, cherry-picked, counter-screen for Shn3 inhibitor project, dose response (AID 624133)", "format": "functional"}, "[10]": {"molecular_target": "ATP-binding cassette sub-family B member 6 (Homo sapiens, UniProt Q9NP58)", "sequence (Q9NP58 whole entry)": "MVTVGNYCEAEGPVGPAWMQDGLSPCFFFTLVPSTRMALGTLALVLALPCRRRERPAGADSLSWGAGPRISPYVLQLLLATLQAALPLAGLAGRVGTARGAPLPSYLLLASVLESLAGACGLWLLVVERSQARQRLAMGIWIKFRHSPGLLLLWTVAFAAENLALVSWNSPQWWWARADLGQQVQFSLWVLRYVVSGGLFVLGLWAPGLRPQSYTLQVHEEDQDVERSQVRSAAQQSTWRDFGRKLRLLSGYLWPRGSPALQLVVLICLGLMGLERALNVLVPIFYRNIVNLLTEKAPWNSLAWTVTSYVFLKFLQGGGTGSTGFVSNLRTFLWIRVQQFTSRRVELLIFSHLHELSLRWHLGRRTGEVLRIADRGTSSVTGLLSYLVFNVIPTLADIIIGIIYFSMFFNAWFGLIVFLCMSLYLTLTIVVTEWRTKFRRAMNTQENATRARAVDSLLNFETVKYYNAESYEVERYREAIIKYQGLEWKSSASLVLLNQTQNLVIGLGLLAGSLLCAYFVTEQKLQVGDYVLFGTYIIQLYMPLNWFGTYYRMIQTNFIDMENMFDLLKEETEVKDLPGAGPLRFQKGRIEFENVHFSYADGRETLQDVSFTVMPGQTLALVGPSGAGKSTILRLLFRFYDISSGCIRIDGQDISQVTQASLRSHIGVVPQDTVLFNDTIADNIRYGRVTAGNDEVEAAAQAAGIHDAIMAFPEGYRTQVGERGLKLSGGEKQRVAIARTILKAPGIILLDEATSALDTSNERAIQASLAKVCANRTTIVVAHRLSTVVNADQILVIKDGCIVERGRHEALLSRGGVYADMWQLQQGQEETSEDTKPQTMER", "test": "ABCB6 transporter inhibitors, porphyrin accumulation, dose response, flow cytometry, K562-ABCB6 cells, cherry pick 02 (AID 624487)", "format": "functional", "settings": "read-out: EC50_MICROM"}, "[11]": {"molecular_target": "Long-chain-fatty-acid--AMP ligase FadD28 (Mycobacterium tuberculosis, UniProt P9WQ59)", "sequence (P9WQ59 whole entry)": "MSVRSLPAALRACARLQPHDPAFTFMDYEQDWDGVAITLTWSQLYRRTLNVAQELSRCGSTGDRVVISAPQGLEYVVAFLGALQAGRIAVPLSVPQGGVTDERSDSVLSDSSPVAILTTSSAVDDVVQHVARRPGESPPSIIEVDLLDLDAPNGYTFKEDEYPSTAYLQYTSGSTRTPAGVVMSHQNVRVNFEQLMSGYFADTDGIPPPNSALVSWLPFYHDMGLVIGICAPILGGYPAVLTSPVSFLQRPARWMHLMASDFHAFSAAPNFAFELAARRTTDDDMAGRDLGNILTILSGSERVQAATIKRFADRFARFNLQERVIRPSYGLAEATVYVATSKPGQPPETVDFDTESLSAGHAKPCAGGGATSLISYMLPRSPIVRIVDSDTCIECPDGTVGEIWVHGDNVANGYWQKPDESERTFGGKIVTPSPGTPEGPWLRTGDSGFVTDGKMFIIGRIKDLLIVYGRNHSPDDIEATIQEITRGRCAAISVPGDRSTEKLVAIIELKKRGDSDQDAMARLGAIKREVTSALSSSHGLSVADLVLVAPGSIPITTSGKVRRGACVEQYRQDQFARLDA", "test": "Fluorescence polarization aasay to screen for inhibitors that compete for the binding of FadD28 to a bisubstrate Measured in Biochemical System Using Plate Reader - 2147-01_Inhibitor_Dose_CherryPick_Activity.", "format": "functional, Mycobacterium tuberculosis H37Rv"}, "[12]": {"test": "viability loss in HepG2 hepatoma cells – cell-based, ATP luminescence, cherry-pick, activator set 2, cytotoxicity control, dose response (AID 1053143)", "format": "functional"}, "Beta-lactamase [13]": {"molecular_target": "Beta-lactamase (Salmonella choleraesuis (strain SC-B67), UniProt Q5J463)", "sequence (Q5J463 whole entry)": "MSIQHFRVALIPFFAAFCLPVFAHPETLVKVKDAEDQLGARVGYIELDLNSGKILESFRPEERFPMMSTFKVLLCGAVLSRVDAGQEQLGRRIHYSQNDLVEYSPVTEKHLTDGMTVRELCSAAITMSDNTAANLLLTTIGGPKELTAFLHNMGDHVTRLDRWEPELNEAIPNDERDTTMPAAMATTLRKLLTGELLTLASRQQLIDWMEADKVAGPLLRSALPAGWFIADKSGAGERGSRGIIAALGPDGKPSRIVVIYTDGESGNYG", "test": "Epi-absorbance-based counterscreen for selective VIM-2 inhibitors: dose response biochemical high throughput screening assay to identify inhibitors of TEM-1 serine-beta-lactamase."}, "Beta-lactamase [14]": {"molecular_target": "T5, Beta-lactamase (Pseudomonas aeruginosa, UniProt Q79MP6)", "T5 sequence (Q79MP6 whole entry)": "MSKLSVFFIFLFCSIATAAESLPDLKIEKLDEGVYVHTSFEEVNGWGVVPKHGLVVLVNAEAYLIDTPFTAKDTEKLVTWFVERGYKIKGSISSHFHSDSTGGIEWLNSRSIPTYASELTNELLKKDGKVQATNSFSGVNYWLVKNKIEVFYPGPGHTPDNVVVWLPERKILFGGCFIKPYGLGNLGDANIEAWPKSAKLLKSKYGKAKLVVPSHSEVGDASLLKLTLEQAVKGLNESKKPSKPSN", "test": "inhibition of IMP-1 beta-lactamase activity – biochemical, epi-absorbance, selectivity assay for VIM-2 inhibitor project, dose response (AID 1920)"}, "Beta-lactamase [15]": {"molecular_target": "T5, Beta-lactamase", "test": "[…] counterscreen for selective VIM-2 inhibitors: dose response biochemical high throughput screening assay to identify inhibitors of IMP-1 metallo-beta-lactamase."}, "[16]": {"test": "Trypanosoma cruzi growth suppression in host cells – NIH3T3 host cells, beta-gal luminescence, confirmation (AID 2044);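 note: intracellular parasites grown in NIH/3T3 mouse fibroblasts as host cells; luminescent beta-galactosidase reporter signal from transgenic T. cruzi replicating inside host cells; inhibitors lower the luminescence signal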", "format": "functional, cell-based"}, "[17]": {"test": "NIH3T3 cell viability loss – ATP luminescence, mouse fibroblasts, counter-screen, dose response (AID 2010);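 note: cells exposed to compound for about 90 hours before reading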", "format": "functional, cell-based"}, "cells": {"test": "cells", "format": "functional"}, "[18]": {"molecular_target": "T6, Sentrin-specific protease 8 (Homo sapiens, UniProt Q96LD8)", "T6 sequence (Q96LD8 whole entry)": "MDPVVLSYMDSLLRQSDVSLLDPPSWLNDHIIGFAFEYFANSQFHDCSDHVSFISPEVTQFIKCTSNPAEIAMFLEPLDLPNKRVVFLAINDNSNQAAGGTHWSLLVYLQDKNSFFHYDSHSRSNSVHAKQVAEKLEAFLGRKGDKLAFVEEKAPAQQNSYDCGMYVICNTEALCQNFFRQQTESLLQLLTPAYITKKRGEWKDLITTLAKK", "format": "functional"}, "[19]": {"molecular_target": "T6, Sentrin-specific protease 8", "format": "functional", "remark": "listed apart in the source"}, "Caspase-3": {"molecular_target": "T7, Caspase-3 (Homo sapiens, UniProt P42574)", "T7 sequence (P42574 whole entry)": "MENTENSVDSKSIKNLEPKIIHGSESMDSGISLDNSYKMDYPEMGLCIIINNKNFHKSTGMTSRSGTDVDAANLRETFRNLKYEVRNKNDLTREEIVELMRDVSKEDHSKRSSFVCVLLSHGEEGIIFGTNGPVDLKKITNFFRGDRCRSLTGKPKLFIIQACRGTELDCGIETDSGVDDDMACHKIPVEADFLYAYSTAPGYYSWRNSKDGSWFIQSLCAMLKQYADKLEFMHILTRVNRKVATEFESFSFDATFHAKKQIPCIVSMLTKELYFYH", "test": "Dose-response confirmation of uHTS inhibitor hits of Sentrin-Specific Protease 8 in a Caspase-3 Fluorescence assay.", "format": "functional"}, "[20]": {"molecular_target": "Beta-2 adrenergic receptor (Homo sapiens, UniProt P07550)", "sequence (P07550 whole entry)": "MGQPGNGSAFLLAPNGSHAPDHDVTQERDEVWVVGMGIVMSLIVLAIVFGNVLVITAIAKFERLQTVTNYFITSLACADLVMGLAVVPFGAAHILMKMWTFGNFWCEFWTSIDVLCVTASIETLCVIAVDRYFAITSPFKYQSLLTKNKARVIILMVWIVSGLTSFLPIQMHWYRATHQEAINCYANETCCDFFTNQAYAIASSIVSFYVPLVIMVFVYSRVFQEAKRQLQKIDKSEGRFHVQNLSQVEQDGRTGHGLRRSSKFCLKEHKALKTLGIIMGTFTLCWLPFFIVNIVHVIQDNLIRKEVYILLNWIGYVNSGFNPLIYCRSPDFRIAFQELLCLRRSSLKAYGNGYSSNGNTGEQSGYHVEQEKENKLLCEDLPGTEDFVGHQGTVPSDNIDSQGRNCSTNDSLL", "test": "Dose response for HTS for Beta-2AR agonists via FAP method from Powderset3.", "format": "functional"}}, "note": "Active and inactive are the calls of the source.", "data": [{"smiles": "CCc1ccc(NC(=O)c2nc(S(=O)(=O)Cc3ccccc3)ncc2Cl)cc1", "values": [{"measurement": "IC50", "setting": "[1]", "result": "11.9 µM (inactive)"}, {"measurement": "EC50", "setting": "Mu-type opioid receptor", "result": "> 32 µM (inactive)"}, {"measurement": "EC50", "setting": "[2]", "result": "> 32 µM (inactive)"}, {"measurement": "IC50", "setting": "[3]", "result": "13.7 µM (active)"}, {"measurement": "EC50", "setting": "Beta-galactosidase", "result": "> 31.5 µM (inactive)"}, {"measurement": "IC50", "setting": "[4]", "result": 7.28, "unit": "µM"}, {"measurement": "IC50", "setting": "CHO", "result": "2.91 µM (active)"}, {"measurement": "AC50", "setting": "[5]", "result": "2.28 µM (active)"}, {"measurement": "AC50", "setting": "[6]", "result": "1.74 µM (active)"}, {"measurement": "EC50", "setting": "Protein RecA", "result": "1.82 µM (active)"}, {"measurement": "IC50", "setting": "Beta Lactamase", "result": "12.1 µM (inactive)"}, {"measurement": "AC50", "setting": "[7]", "result": "0.551 µM (active)"}, {"measurement": "AC50", "setting": "[8]", "result": "24.4 µM (active)"}, {"measurement": "AC50", "setting": "[9]", "result": "8.1 µM (active)"}, {"measurement": "EC50", "setting": "[10]", "result": "23.9 µM (active)"}]}, {"smiles": "COc1cc([N+](=O)[O-])ccc1N=C(S)NNC(=O)c1ccc2c(c1)OCO2", "values": [{"measurement": "AC50", "setting": "[11]", "result": "> 100 µM (inactive)"}]}, {"smiles": "COc1cccc(NC(=O)c2ccc3c(c2)N(C)CCS3)c1", "values": [{"measurement": "AC50", "setting": "[12]", "result": "26 µM (active)"}]}, {"smiles": "S=c1[nH]nc(C2CC2)n1Cc1ccccc1", "values": [{"measurement": "IC50", "setting": "Beta-lactamase [13]", "result": "> 59.6 µM (inactive)"}, {"measurement": "IC50", "setting": "Beta-lactamase [14]", "result": "> 59.6 µM (inactive)"}, {"measurement": "IC50", "setting": "Beta-lactamase [15]", "result": "> 59.6 µM (inactive)"}]}, {"smiles": "CC(=O)N1N=C(c2ccccc2)OC1c1ccc([N+](=O)[O-])s1", "note": "(stereo not given)", "values": [{"measurement": "EC50", "setting": "[16]", "result": "1.79 µM (active)"}, {"measurement": "EC50", "setting": "[17]", "result": "10.8 µM (active)"}, {"measurement": "IC50", "setting": "cells", "result": "43.3 µM (active)"}, {"measurement": "AC50", "setting": "[6]", "result": "8.37 µM (active)"}, {"measurement": "AC50", "setting": "[8]", "result": "39.3 µM (active)"}, {"measurement": "AC50", "setting": "[9]", "result": "14.3 µM (active)"}, {"measurement": "IC50", "setting": "[18]", "result": "6.39 µM (active)"}, {"measurement": "IC50", "setting": "[19]", "result": "6.49 µM (active)"}, {"measurement": "IC50", "setting": "Caspase-3", "result": "48.3 µM (active)"}]}, {"smiles": "COCc1ccc(CN2CCCC(C(=O)Nc3ccc(-c4cccc(OC)c4)cc3)C2)o1", "note": "(stereo not given)", "values": [{"measurement": "EC50", "setting": "[20]", "result": "607 µM (inactive)"}]}]}
